Data as given in ChEMBL document CHEMBL5370584, “Reprogramming Energy Metabolism with Synthesized PDK Inhibitors Based on Dichloroacetate Derivatives and Targeted Delivery Systems for Enhanced Cancer Therapy” (J Med Chem, 2023).
pEC50, pIC50: −log10 of the molar value. The source made the active and inactive calls. The rule behind the calls is not given here.

Assays:
[1] = test system: MOLM-13; assay: Antiproliferative activity against human MOLM-13 cells assessed as inhibition of cell growth incubated for 24 hrs by MTT assay; type: functional, cell-based; conditions: MOLM-13, 24 h
[2] = test system: NB-4; assay: Antiproliferative activity against human NB4 cells assessed as inhibition of cell growth incubated for 24 hrs by MTT assay; type: functional, cell-based; conditions: NB-4, 24 h
[3] = test system: 4T1; assay: Antiproliferative activity against mouse 4T1 cells assessed as inhibition of cell growth incubated for 24 hrs by MTT assay; type: functional, cell-based; conditions: 4T1, 24 h
[4] = test system: MCF7; assay: Antiproliferative activity against human MCF7 cells assessed as inhibition of cell growth incubated for 24 hrs by MTT assay; type: functional, cell-based; conditions: MCF7, 24 h
[5] = test system: HeLa; assay: Antiproliferative activity against human HeLa cells assessed as inhibition of cell growth incubated for 24 hrs by MTT assay; type: functional, cell-based
[6] = test system: COS-7; assay: (§1) Antiproliferative activity against African green monkey COS7 cells assessed as inhibition of cell growth incubated for 24 hrs by MTT assay; type: toxicity, cell-based, Chlorocebus aethiops; conditions: cos-7
[7] = as §1; type: toxicity, cell-based, Chlorocebus aethiops, COS-7; conditions: African green monkey (Chlorocebus aethiops), COS-7 cells
[8] = target: [Pyruvate dehydrogenase (acetyl-transferring)] kinase isozyme 1, mitochondrial (Homo sapiens, UniProt Q15118); assay: Inhibition of PDK1 (unknown origin) incubated for 30 mins in presence of ATP by kinase glo luminescent kinase assay
[9] = Inhibition of PDK (unknown origin) incubated for 10 mins in presence of ATP; set-up: species or system Homo sapiens
[10] = test system: Prostate cell; assay: Antiproliferative activity against human prostate cell assessed as inhibition of cell viability measured after 72 hrs by MTT assay; type: functional, cell-based
[11] = test system: Breast cancer cell line; assay: Antiproliferative activity against human Breast cancer cell line assessed as inhibition of cell viability measured after 72 hrs by MTT assay; type: functional, cell-based
[12] = Inhibition of PDK (unknown origin); set-up: species or system Homo sapiens
[13] = test system: 4T1; assay: Inhibition of glycolysis in mouse 4T1 cell lysates assessed as reduction in extracellular acidification rate at 20 mM measured after 6 hrs; type: functional, cell-based
[14] = target: [Pyruvate dehydrogenase (acetyl-transferring)] kinase isozyme 1, mitochondrial (Mus musculus) (UniProt Q8BFP9); assay: Inhibition of PDK1 transcription in mouse 4T1 cells at 4 uM incubated for 24 hrs by qPCR analysis; type: cell-based
[15] = target: [Pyruvate dehydrogenase (acetyl-transferring)] kinase isozyme 2, mitochondrial (Mus musculus) (UniProt Q9JK42); assay: Inhibition of PDK2 transcription in mouse 4T1 cells at 4 uM incubated for 24 hrs by qPCR analysis; type: cell-based
[16] = target: [Pyruvate dehydrogenase (acetyl-transferring)] kinase isozyme 3, mitochondrial (Mus musculus) (UniProt Q922H2); assay: Inhibition of PDK3 transcription in mouse 4T1 cells at 4 uM incubated for 24 hrs by qPCR analysis; type: cell-based
[17] = target: [Pyruvate dehydrogenase (acetyl-transferring)] kinase isozyme 4, mitochondrial (Mus musculus) (UniProt O70571); assay: Inhibition of PDK4 transcription in mouse 4T1 cells at 4 uM incubated for 24 hrs by qPCR analysis; type: cell-based
[18] = test system: 4T1; assay: Inhibition of PDK1 expression in mouse 4T1 cells at 4 uM incubated for 24 hrs by Western blot analysis; type: functional, cell-based
[19] = test system: 4T1; assay: Inhibition of PDK4 expression in mouse 4T1 cells at 4 uM incubated for 24 hrs by Western blot analysis; type: functional, cell-based
[20] = test system: 4T1; assay: Inhibition of glycolysis in mouse 4T1 cell lysates assessed as reduction in extracellular acidification rate at 2 uM measured after 6 hrs; type: functional, cell-based

Chain of [Pyruvate dehydrogenase (acetyl-transferring)] kinase isozyme 1, mitochondrial (Q15118 whole entry): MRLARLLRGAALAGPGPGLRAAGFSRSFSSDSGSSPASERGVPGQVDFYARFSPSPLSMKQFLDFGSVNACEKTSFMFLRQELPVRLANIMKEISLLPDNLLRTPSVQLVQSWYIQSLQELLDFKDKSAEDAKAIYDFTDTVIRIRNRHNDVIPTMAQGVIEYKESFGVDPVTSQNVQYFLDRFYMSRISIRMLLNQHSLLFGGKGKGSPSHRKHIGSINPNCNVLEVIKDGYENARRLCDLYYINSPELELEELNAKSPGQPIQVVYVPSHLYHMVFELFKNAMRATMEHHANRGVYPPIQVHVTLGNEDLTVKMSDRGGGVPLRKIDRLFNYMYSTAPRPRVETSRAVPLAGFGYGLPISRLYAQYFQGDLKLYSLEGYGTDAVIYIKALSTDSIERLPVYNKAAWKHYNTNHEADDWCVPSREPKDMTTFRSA
Chain of [Pyruvate dehydrogenase (acetyl-transferring)] kinase isozyme 4, mitochondrial (Mus musculus) (O70571 whole entry): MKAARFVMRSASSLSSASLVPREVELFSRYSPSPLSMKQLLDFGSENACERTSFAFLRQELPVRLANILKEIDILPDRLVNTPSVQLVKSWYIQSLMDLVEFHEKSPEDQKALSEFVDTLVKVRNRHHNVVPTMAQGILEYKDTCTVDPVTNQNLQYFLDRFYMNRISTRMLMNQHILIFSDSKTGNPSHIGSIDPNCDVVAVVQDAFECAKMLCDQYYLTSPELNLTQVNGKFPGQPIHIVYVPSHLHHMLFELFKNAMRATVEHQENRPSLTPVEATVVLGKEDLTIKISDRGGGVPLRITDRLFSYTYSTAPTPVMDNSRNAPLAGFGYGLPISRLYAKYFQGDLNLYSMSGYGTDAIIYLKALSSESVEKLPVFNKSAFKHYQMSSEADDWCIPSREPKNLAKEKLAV
Chain of [Pyruvate dehydrogenase (acetyl-transferring)] kinase isozyme 3, mitochondrial (Mus musculus) (Q922H2 whole entry): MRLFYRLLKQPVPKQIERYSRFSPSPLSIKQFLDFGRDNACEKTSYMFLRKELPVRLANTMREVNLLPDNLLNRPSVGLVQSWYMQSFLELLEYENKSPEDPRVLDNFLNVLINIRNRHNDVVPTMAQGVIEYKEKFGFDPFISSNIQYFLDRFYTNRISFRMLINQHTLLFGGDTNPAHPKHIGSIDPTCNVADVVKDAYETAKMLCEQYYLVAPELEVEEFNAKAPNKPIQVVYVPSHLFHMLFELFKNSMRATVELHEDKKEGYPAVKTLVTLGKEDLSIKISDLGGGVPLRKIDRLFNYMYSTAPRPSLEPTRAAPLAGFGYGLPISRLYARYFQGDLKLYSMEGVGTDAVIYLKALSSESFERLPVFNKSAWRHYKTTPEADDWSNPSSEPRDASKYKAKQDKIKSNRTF
Chain of [Pyruvate dehydrogenase (acetyl-transferring)] kinase isozyme 1, mitochondrial (Mus musculus) (Q8BFP9 whole entry): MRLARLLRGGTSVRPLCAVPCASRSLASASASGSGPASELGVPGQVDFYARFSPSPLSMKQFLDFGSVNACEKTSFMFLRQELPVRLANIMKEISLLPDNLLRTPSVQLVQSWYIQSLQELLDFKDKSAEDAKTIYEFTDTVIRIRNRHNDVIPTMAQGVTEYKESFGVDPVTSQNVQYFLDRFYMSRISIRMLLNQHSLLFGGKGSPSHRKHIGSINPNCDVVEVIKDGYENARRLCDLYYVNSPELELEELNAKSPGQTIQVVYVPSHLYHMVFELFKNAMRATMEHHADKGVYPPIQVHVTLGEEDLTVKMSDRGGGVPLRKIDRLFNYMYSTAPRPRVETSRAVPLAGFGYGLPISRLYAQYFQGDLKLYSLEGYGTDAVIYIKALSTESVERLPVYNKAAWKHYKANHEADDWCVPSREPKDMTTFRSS

Compound | pIC50 [1] | pIC50 [2] | pIC50 [3] | pIC50 [4] | pIC50 [5] | IC50 at 24 h [7] [µM] | pEC50 [8] | also measured
O=C(O)C(Cl)Cl [DICHLOROACETIC ACID] | 1.66 | 1.70 | 1.52 | 1.46 | 1.60 | – | – | pIC50 [6]: 1.40
O=C(CCCNC(=O)C(Cl)Cl)Nc1ccc([As]2SCCCS2)cc1 | 5.87 | 5.90 | 5.55 | 5.17 | 5.45 | 6.12 | 6.00 | –
O=C(CCCCNC(=O)C(Cl)Cl)Nc1ccc([As]2SCCCS2)cc1 | 5.91 | 5.87 | 5.56 | 5.03 | 5.49 | 4.6 | 6.03 | –
CN(C)C(=O)c1ccc(S(=O)(=O)c2ccc(NC(=O)[C@@](C)(O)C(F)(F)F)c(Cl)c2)cc1 | – | – | – | – | – | – | – | pEC50 [9]: 7.06
O=C(CCCCC[P+](c1ccccc1)(c1ccccc1)c1ccccc1)NC(COC(=O)C(Cl)Cl)(COC(=O)C(Cl)Cl)COC(=O)C(Cl)Cl | – | – | – | – | – | – | – | pIC50 [10]: 4.77
O=C([O-])C(Cl)Cl.[Na+] [SODIUM DICHLOROACETATE] | – | – | – | – | – | – | – | pEC50 [9]: 3.74
O=C(CCCNC(=O)C(Cl)Cl)Nc1ccccc1[As]1SCCCS1 | 5.71 | 5.68 | 3.48 | 5.55 | 5.48 | 6.06 | 5.54 | –
O=C(CCCCCCNC(=O)C(Cl)Cl)Nc1ccccc1[As]1SCCCS1 | 5.70 | 5.79 | 5.58 | 5.53 | 5.71 | 8.07 | 5.92 | –
CC1(C)CC[C@]2(C(=O)O)CC[C@]3(C)C(=CC[C@@H]4[C@@]5(C)CC[C@H](O[C@@H]6O[C@H](CO[C@@H]7OC[C@H](O)[C@H](O)[C@H]7O)[C@@H](O)[C@H](O)[C@H]6NC(=O)C(Cl)Cl)C(C)(C)[C@@H]5CC[C@]43C)[C@@H]2C1 | – | – | – | – | – | – | – | pIC50 [11]: 6.37
CC(C)c1ccc(COc2ccc(CC(=O)NCCN)cc2Cl)cc1 | – | – | – | – | – | – | – | pEC50 [12]: 5.70
O=C(O)C(Cl)Cl | – | – | – | – | – | – | – | inhibition [13]: inactive
O=C(CCCCCCNC(=O)C(Cl)Cl)Nc1ccc([As]2SCCCS2)cc1 | 5.89 | 5.94 | 5.68 | 5.71 | 5.60 | 9.66 | 6.72 | –
O=C(CCCCCNC(=O)C(Cl)Cl)Nc1ccccc1[As]1SCCCS1 | 5.79 | 5.70 | 5.67 | 5.68 | 5.43 | 6.13 | 5.49 | –
C[C@@H]1CN(C(=O)[C@@](C)(O)C(F)(F)F)[C@@H](C)CN1C(=O)c1ccc(C#N)cc1 | – | – | – | – | – | – | – | pEC50 [12]: 7.80
O=C(Nc1ccc([As]2SCCCS2)cc1)C(Cl)Cl | 6.04 | 6.02 | 6.01 | 5.75 | 6.16 | 3.74 | 5.33 | inhibition [14]: inactive; inhibition [15]: inactive; inhibition [16]: inactive; inhibition [17]: inactive; inhibition [18]: inactive; inhibition [19]: inactive; inhibition [20]: inactive
O=S(=O)(c1ccc(O)cc1O)N1Cc2cc(O)cc(O)c2C1 | – | – | – | – | – | – | – | pEC50 [9]: 6.10
O=C(CCCCCCCNC(=O)C(Cl)Cl)Nc1ccc([As]2SCCCS2)cc1 | 5.91 | 5.96 | 5.76 | 5.72 | 5.72 | 9.62 | 6.21 | –
O=C(CCCCCCCCCCCNC(=O)C(Cl)Cl)Nc1ccccc1[As]1SCCCS1 | 5.87 | 6.04 | 5.53 | 5.74 | 5.78 | 3 | 5.80 | –
O=C(CCNC(=O)C(Cl)Cl)Nc1ccccc1[As]1SCCCS1 | 5.77 | 5.79 | 5.49 | 5.45 | 5.60 | 5.23 | 5.59 | –
COc1ccc(-c2c(-c3ccc(O)cc3O)n[nH]c2C)cc1 | – | – | – | – | – | – | – | pEC50 [9]: 3.19
O=C(CCCCCCCNC(=O)C(Cl)Cl)Nc1ccccc1[As]1SCCCS1 | 5.54 | 5.76 | 5.53 | 5.55 | 5.68 | 4.8 | 5.72 | –
O=C(Nc1ccccc1[As]1SCCCS1)C(Cl)Cl | 6.32 | 6.28 | 5.96 | 6.11 | 6.57 | 1.87 | 5.02 | –
O=C(CCCCCCCCCCCNC(=O)C(Cl)Cl)Nc1ccc([As]2SCCCS2)cc1 | 6.10 | 6.15 | 5.85 | 5.82 | 6.03 | 1.15 | 5.89 | –
O=C(CCCCNC(=O)C(Cl)Cl)Nc1ccccc1[As]1SCCCS1 | 5.75 | 5.77 | 5.43 | 5.27 | 5.33 | 5.58 | 6.19 | –
C[C@@H]1C[C@H]2O[C@@H]2/C=C\C=C\C(=O)Cc2c(Cl)c(O)cc(O)c2C(=O)O1 [RADICICOL] | – | – | – | – | – | – | – | pEC50 [9]: 2.96
O=C(CCNC(=O)C(Cl)Cl)Nc1ccc([As]2SCCCS2)cc1 | 5.87 | 5.91 | 5.57 | 5.49 | 5.50 | 6.27 | 5.72 | –
